Experimental data taken from article PMC9128668 (Nature, 2021).

Target: T1, BT1622^3S-Gal/GalNAc (Bacteroides thetaiotaomicron, UniProt Q8A7A3)
T1 sequence (Q8A7A3 21-500): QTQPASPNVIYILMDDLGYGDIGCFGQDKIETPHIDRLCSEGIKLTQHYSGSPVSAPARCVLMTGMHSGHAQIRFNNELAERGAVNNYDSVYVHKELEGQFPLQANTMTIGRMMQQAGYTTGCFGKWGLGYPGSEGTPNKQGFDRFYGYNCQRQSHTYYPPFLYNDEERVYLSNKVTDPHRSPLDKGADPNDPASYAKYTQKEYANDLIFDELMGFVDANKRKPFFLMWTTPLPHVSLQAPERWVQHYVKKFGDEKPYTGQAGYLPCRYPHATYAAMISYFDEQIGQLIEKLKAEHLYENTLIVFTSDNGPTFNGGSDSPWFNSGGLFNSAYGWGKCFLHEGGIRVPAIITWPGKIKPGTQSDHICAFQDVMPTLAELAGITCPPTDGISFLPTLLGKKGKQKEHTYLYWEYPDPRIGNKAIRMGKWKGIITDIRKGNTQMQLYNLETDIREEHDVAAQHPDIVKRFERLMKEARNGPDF
Assay: X-ray crystallography
Type: binding
Conditions: active site; Ca2+; inactive Ser form; 100 mM ligand

CC(=O)N[C@H]1C(O)O[C@H](CO)[C@H](O)[C@@H]1O (stereo partly shown) [GalNAc]
X-ray crystallography: BT1622^3S-Gal/GalNAc in complex with GalNAc
